We go through eight compounds from US11434242B2, “Dopamine-b-hydroxylase inhibitors” (BIAL-PORTELA & Cª, S.A., priority 2017, dated 2022).

In data set [1] the target is T1, DβH (Homo sapiens, UniProt P09172).
T1 construct: cellular homogenate (75 μg total protein); host or cells: SK-N-SH cells (homogenate)
T1 sequence (P09172 1-617): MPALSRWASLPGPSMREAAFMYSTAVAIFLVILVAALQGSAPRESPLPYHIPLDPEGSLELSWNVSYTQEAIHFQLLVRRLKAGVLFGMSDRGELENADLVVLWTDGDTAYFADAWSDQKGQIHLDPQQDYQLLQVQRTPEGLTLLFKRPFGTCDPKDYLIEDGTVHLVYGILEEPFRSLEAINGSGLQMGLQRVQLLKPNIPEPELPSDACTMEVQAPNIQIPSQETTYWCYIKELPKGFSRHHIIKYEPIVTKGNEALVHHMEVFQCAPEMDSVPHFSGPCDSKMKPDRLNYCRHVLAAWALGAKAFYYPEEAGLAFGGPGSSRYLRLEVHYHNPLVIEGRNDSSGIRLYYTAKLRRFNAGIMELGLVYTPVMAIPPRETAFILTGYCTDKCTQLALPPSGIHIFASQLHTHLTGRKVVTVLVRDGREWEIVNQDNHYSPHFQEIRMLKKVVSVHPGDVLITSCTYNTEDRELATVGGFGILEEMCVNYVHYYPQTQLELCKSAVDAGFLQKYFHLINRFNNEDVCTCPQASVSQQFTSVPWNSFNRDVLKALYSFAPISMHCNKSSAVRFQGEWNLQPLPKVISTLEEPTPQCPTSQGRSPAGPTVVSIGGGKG
The data set can be described thus: DβH inhibition assay in SK-N-SH cellular homogenates (tyramine to octopamine). It counts as biochemical. To be noted: SK-N-SH cell homogenate.

Data set [2] in a line: Evaluation of pharmacokinetic profile: plasma and brain concentrations after oral dosing. The conditions noted are these: rat, 10 mg/kg po; for concentration at 1 h / concentration at 2 h: male, Wistar; for concentration at 1 h: 1 h post-dosing; for concentration at 2 h: 2 h post-dosing. In kind it is in vivo, Wistar rats. The procedure: Adult male Wistar rats were kept under controlled environmental conditions (12 h light/dark cycle, room temperature 22±1° C. and humidity 50±5%, food and tap water ad libitum). On the day before the experiment, the animals were fasted. In experiments designed to evaluate the pharmacokinetic profile of Examples 56, 66, 199 and 232, rats (n=4) were administered orally (p.o.) with examples 56, 66, 199 and 232 (10 mg/kg/4 mL; vehicle: 40% kleptose) and plasma and brain samples were collected from anaesthetized animals at 1 and 2 h post-dosing. Animals were anaesthetized by intraperitoneal administration of sodium pentobarbital (60 mg/kg). Blood was collected from cardiac punction into heparinised tubes and kept on ice until centrifugation at 1,500 g for 15 min at 4° C. Plasma and brain samples were stored at less than −20° C. until analysis.
After thawing, 200 μL of acetonitrile 0.1% formic acid was added to 100 μL of plasma. The samples were vortexed and centrifuged for 10 min at 10 000 g. Supernatant was filtered and injected into a mass spectrometer.
After thawing and weighing, water was added to the brain to give a tissue concentration of […]. The samples were then homogenized using a Heidolph DIAX 900 mixer and transferred to plastic tubes. Following centrifugation at 10 000 g for 20 min, supernatant was taken and treated as described for plasma.

For data set [3], the target named is T2, Dopamine beta hydroxylase (Homo sapiens, UniProt P09172).
T2 construct: 125 μl of plasma; tissue Instituto Português do Sangue Transplantação; host or cells: human plasma from healthy donors
T2 sequence (P09172 40-617 limits assumed): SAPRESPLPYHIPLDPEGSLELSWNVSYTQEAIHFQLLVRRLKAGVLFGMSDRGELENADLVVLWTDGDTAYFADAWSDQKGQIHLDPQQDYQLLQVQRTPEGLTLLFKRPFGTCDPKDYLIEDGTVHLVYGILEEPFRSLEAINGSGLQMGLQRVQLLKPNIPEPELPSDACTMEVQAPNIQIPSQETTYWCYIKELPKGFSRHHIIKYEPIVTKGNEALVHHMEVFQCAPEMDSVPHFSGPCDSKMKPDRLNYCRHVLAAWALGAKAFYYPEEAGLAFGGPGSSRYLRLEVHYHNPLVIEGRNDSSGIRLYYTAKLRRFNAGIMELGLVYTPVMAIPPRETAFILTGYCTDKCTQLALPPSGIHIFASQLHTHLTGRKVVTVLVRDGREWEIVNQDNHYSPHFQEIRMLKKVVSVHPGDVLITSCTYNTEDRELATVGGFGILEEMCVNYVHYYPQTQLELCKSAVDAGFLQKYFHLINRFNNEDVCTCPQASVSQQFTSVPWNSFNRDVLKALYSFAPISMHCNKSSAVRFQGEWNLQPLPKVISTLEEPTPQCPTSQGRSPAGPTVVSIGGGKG
Put plainly: Dopamine beta hydroxylase activity in human plasma. It counts as biochemical. The conditions noted are these: for Plasma (1 μM), activity in % of control: inhibitor 1 μM. In a few lines:
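Octopamine production from tyramine over 45 min at 37° C, measured photometrically at 330 nm after SCX extraction and periodate oxidation against an octopamine standard curve, indicates plasma DβH activity. Compounds tested at final 10, 100 and 1000 nM in human plasma, pH 5.0 cofactor buffer, 10 min preincubation; results as % of control.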

The conditions of data set [4]: literature; cited from earlier work.
Data set [5] deals with DβH. The conditions noted are these: Stanley et al., Br. J. Pharmacol. 1997; cited from earlier work.
Where [6] appears, read: brain, read-out: Cbr (ng/g) at 1 h.
Setting [7] is: brain, read-out: Cbr (ng/g) at 2 h.
Where [8] appears, read: plasma, read-out: Cpl (ng/mL) at 1 h.
The mark [9] stands for this setting: plasma, read-out: Cpl (ng/mL) at 2 h.

Like-named read-outs stand apart in the source and are kept apart here. Marks after values point to notes of the source that are not given here.

What is called IC50 is the concentration that inhibits the measured activity by half.

Regarding `NC(=O)Cc1[nH]c(=S)n2c1[C@@H]1C[C@]1(c1cc(Cl)ccc1F)C2` [Example 56], the “SKNSH (0.1 μM), activity in % of control” value on DβH [1] (inhibitor 0.1 μM) is given as 45.6 % of control. Further, the “SKNSH (1 μM), activity in % of control” value on DβH [1] (inhibitor 1 μM) was 5.2 % of control. In addition, the concentration at 1 h was found to be 20 ng/g in data set [2] (setting [6]) and 1500 ng/mL in data set [2] (setting [8]). Further, the concentration at 2 h in data set [2] (setting [7]) was 21 ng/g; in data set [2] (setting [9]), 1130 ng/mL. The “peripheral selectivity (exposure in plasma compared to brain)” value (“peripheral selectivity” below) in data set [2] is reported as “peripherally selective”. For the same compound, the “Plasma (0.1 μM), activity in % of control” value in data set [3] (inhibitor 0.1 μM) is on record as 38.5 % of control. The “Plasma (1 μM), activity in % of control” value in data set [3] is 5.5 % of control.

Take `O=C(Cc1[nH]c(=S)n2c1[C@@H]1C[C@]1(c1cc(Cl)ccc1F)C2)N1CCOCC1` [Example 66, 2-((5aS,6aR)-5a-(5-chloro-2-fluorophenyl)-3-thioxo-2,3,5,5a,6,6a-hexahydrocyclopropa[3,4]pyrrolo[1,2-c]imidazol-1-yl)-1-morpholinoethan-1-one]: the concentration at 1 h in data set [2] (setting [6]) turned out to be 0 ng/g; in data set [2] (setting [8]) it was 779 ng/mL. The values for the concentration at 2 h in data set [2] (setting [7]) and in data set [2] (setting [9]) were 0 ng/g and 429 ng/mL, respectively. The “peripheral selectivity” value in data set [2] is “peripherally selective”. Besides, the “Plasma (0.1 μM), activity in % of control” value in data set [3] (inhibitor 0.1 μM) was 52.3 % of control. In data set [3], the “Plasma (1 μM), activity in % of control” value is given as 6.4 % of control.

As to `Cl.Fc1cc(F)c(F)c([C@H]2Cc3c(CCN4CCOCC4)[nH]c(=S)n3C2)c1F` [Example 199, (R)-1-(2-morpholinoethyl)-6-(2,3,5,6-tetrafluorophenyl)-2,5,6,7-tetrahydro-3H-pyrrolo[1,2-c]imidazole-3-thione Hydrochloride], the concentration at 1 h in data set [2] (setting [6]) was 45 ng/g; in data set [2] (setting [8]), 1640 ng/mL. For the same compound, the concentration at 2 h in data set [2] (setting [7]) was 0 ng/g; in data set [2] (setting [9]), 777 ng/mL. Moreover, the “peripheral selectivity” value in data set [2] was “peripherally selective”. Moreover, in data set [3] (inhibitor 0.01 μM), the “Plasma (0.01 μM), activity in % of control” value is on record as 27.4 % of control. Further, the “Plasma (0.01 μM), activity in % of control, re-test (asterisked)” value in data set [3] (inhibitor 0.01 μM, re-tested under the same experimental conditions, asterisked data believed to be correct) is on record as 119.3* % of control. For the same compound, the “Plasma (0.1 μM), activity in % of control” value in data set [3] (inhibitor 0.1 μM) is 0.6 % of control. For the same compound, in data set [3] (inhibitor 0.1 μM, re-tested under the same experimental conditions, asterisked data believed to be correct), the “Plasma (0.1 μM), activity in % of control, re-test (asterisked)” value is 84.9* % of control.

For the compound `Cn1c(CC(=O)N[C@@H]2CCOC2)c2n(c1=S)C[C@H](c1c(F)ccc(Br)c1F)C2` [Example 232, 2-((S)-6-(3-bromo-2,6-difluorophenyl)-2-methyl-3-thioxo-2,5,6,7-tetrahydro-3H-pyrrolo[1,2-c]imidazol-1-yl)-N—((R)-tetrahydrofuran-3-yl)acetamide], the concentration at 1 h in data set [2] (setting [6]) is 24 ng/g; in data set [2] (setting [8]) it was 1710 ng/mL. For the same compound, the figures for the concentration at 2 h in data set [2] (setting [7]) and in data set [2] (setting [9]) were 46 ng/g and 1310 ng/mL, respectively. Moreover, the “peripheral selectivity” value in data set [2] was “peripherally selective”. Moreover, the “Plasma (0.01 μM), activity in % of control” value in data set [3] (inhibitor 0.01 μM) is 48.8 % of control. The “Plasma (0.1 μM), activity in % of control” value in data set [3] (inhibitor 0.1 μM) is 6.4 % of control.

For the compound `CCN(CC)C(=S)S` [diethyldithiocarbamate], in data set [4], the toxic side effects result is “toxic side effects”.

In the case of `CCN(CC)C(=S)SSC(=S)N(CC)CC` [disulfiram], the toxic side effects entry in data set [4] was “toxic side effects”.

In the case of `CCCCc1ccc(C(=O)O)nc1` [fusaric acid], the toxic side effects result in data set [4] is given as “toxic side effects”.

In the case of `NCc1c[nH]c(=S)n1[C@H]1CCc2c(F)cc(F)cc2C1` [nepicastat], the IC50 in the data set on DβH [5] is 9 nM. In addition, in data set [4], the “crossing of the BBB” value is recorded as “cross the BBB”.
